The assay relates to human hepatoma Huh-7 cell line harboring a HCV replicon. In words: microbe, parasite or virus in culture. In kind it is cell-based. The settings on record: for EC50 / inhibition at 2 µM: Hepatitis C virus; for EC50: Huh-7; for inhibition at 2 µM: Huh-7, 72 h, read-out: % inhibition at 2 μM.

The values that follow come from US8765722B2 (priority 2009, dated 2014).

`COP1(=O)CCC(NC2CCC(N(c3cc(C#CC(C)(C)C)sc3C(=O)O)C(=O)[C@H]3CC[C@H](C)CC3)CC2)CC1` (stereo partly drawn) [Compound 9, 5-(3,3-Dimethyl-but-1-ynyl)-3-[[4-(1-methoxy-1-oxo-1λ^5-phosphinan-4-ylamino)-cyclohexyl]-(trans-4-methyl-cyclohexanecarbonyl)-amino]-thiophene-2-carboxylic acid]: the EC50 is at most 500 nM and the inhibition at 2 µM stood at 99.9%.
Turning to “5-(3,3-Dimethyl-but-1-ynyl)-3-[[trans-4-(dimethyl-phosphinoyloxy)-cyclobutyl]-cis-4-methyl-cyclohexanecarbonyl)-amino]-thiophene-2-carboxylic acid [Compound 17]”, the “% inhibition at 2 μM” value is on record as 99.5%.
Regarding `CC(C)(C)C#Cc1cc(N(C(=O)[C@H]2CC[C@H](C)CC2)[C@H]2CC[C@H](OP(=O)(c3ccccc3)c3ccccc3)CC2)c(C(=O)O)s1` [Compound 4, 5-(3,3-Dimethyl-but-1-ynyl)-3-[[trans-4-(diphenyl-phosphinoyloxy)-cyclohexyl]-(trans-4-methyl-cyclohexanecarbonyl)-amino]-thiophene-2-carboxylic acid], the inhibition at 2 µM was 94.7%.
With `COP1(=O)CCC(N(c2cc(C#CC(C)(C)C)sc2C(=O)O)C(=O)[C@H]2CC[C@H](C)CC2)CC1` (stereo partly drawn) [Compound 11, 5-(3,3-Dimethyl-but-1-ynyl)-3-[(1-methoxy-1-oxo-1 λ^5phosphinan-4-yl)-(trans-4-methyl-cyclohexanecarbonyl)-amino]-thiophene-2-carboxylic acid], the EC50 is at most 500 nM and the inhibition at 2 µM amounted to 99.8%.
For `CC(C)(C)C#Cc1cc(N(C(=O)[C@H]2CC[C@H](C)CC2)[C@H]2CC[C@H](OP(C)(C)=O)CC2)c(C(=O)O)s1` [Compound 1, 5-(3,3-Dimethyl-but-1-ynyl)-3-[[trans-4-(dimethyl-phosphinoyloxy)-cyclohexyl]-(trans-4-methyl-cyclohexanecarbonyl)-amino]-thiophene-2-carboxylic acid], in that order: at most 500 nM and 99.8%.
For `CP(C)(=O)O[C@H]1CC[C@H](N(c2cc(-c3ccc(NC(=O)c4cscn4)cc3)sc2C(=O)O)C(=O)[C@H]2CC[C@H](C)CC2)CC1` [Compound 7, 3-[[trans-4-(Dimethyl-phosphinoyloxy)-cyclohexyl]-(trans-4-methyl-cyclohexanecarbonyl)-amino]-5-{4-[(thiazole-4-carbonyl)-amino]-phenyl}-thiophene-2-carboxylic acid], in that order: at most 500 nM and 99.8%.
For `CC(C)(C)C#Cc1cc(N(C(=O)[C@H]2CC[C@H](C)CC2)[C@H]2CC[C@H](OP(C)(=O)c3ccccc3)CC2)c(C(=O)O)s1` (stereo partly drawn) [Compound 3, 5-(3,3-Dimethyl-but-1-ynyl)-3-{(trans-4-methyl-cyclohexanecarbonyl)-[trans-4-(methyl-phenyl-phosphinoyloxy)-cyclohexyl]-amino}-thiophene-2-carboxylic acid], in that order: at most 500 nM and 99.6%.
On to `CP(C)(=O)O[C@H]1CC[C@H](N(c2cc(-c3ccc(-c4cc5ncccn5n4)cc3)sc2C(=O)O)C(=O)[C@H]2CC[C@H](C)CC2)CC1` [Compound 8], for which the EC50 is at most 500 nM and the inhibition at 2 µM worked out at 99.8%.
On to `CCOP(C)(=O)Cc1ccc(-c2cc(N(C(=O)[C@H]3CC[C@H](C)CC3)[C@H]3CC[C@H](O)CC3)c(C(=O)O)s2)cc1` (stereo partly shown) [Compound 21], for which the inhibition at 2 µM was 79.2%.
With `CC(C)(C#Cc1cc(N(C(=O)[C@H]2CC[C@H](C)CC2)[C@H]2CC[C@H](O)CC2)c(C(=O)O)s1)CCOP(C)(C)=O` [Compound 23], the EC50 is at most 500 nM.
As to `CCOP(C)(=O)C1(OC)CCC(N(c2cc(C#CC(C)(C)C)sc2C(=O)O)C(=O)[C@H]2CC[C@H](C)CC2)CC1` (stereo partly shown) [Compound 14], the concentration giving a half-maximal response (EC50) was at most 500 nM and the inhibition at 2 µM stood at 99.8%.
For `CCOP(C)(=O)CCN(c1cc(C#CC(C)(C)C)sc1C(=O)O)C(=O)[C@H]1CC[C@H](C)CC1` (stereo partly shown) [Compound 18, 5-(3,3-Dimethyl-but-1-ynyl)-3-[[2-(ethoxy-methyl-phosphinoyl)-ethyl]-(4-methyl-cyclohexanecarbonyl)-amino]thiophene-2-carboxy-lic acid], in that order: at most 500 nM and 98.8%.
For `CCP(=O)(CC)OCCN(c1cc(C#CC(C)(C)C)sc1C(=O)O)C(=O)[C@H]1CC[C@H](C)CC1` [Compound 16, 3-[[2-(Diethyl-phosphinoyloxy)-ethyl]-(trans-4-methyl-cyclohexanecarbonyl)-amino]-5-(3,3-dimethyl-but-1-ynyl)-thiophene-2-carboxylic acid], in that order: at most 500 nM and 99.5%.
Take `CCOP(C)(=O)Cc1ccc(-c2cc(N(C(=O)[C@H]3CC[C@H](C)CC3)C3CCC4(CC3)OCCO4)c(C(=O)O)s2)cc1` (stereo partly shown) [Compound 20, 3-[(1,4-Dioxa-spiro[4.5]dec-8-yl)-(4-methyl-cyclohexanecarbonyl)-amino]-5-[4-(ethoxy-methyl-phosphinoylmethyl)-phenyl]-thiophene-2-carboxylic acid]: the inhibition at 2 µM is 56.3%.
On to `CC(C)(C)C#Cc1cc(N(CCOP(C)(C)=O)C(=O)[C@H]2CC[C@H](C)CC2)c(C(=O)O)s1` [Compound 15, 5-(3,3-Dimethyl-but-1-ynyl)-3-[[2-(dimethyl-phosphinoyloxy)-ethyl]-(trans-4-methyl-cyclohexanecarbonyl)-amino]-thiophene-2-carboxylic acid], for which the EC50 is at most 500 nM and the inhibition at 2 µM amounted to 98.9%.
For `CC(C)(C)C#Cc1cc(N(CCP(C)(=O)O)C(=O)[C@H]2CC[C@H](C)CC2)c(C(=O)O)s1` [Compound 19, 5-(3,3-dimethyl-but-1-ynyl)-3-[[2-(hydroxy-methyl-phosphinoyl)-ethyl]-(4-methyl-cyclohexanecarbonyl)-amino]-thiophene-2-carboxylic acid], in that order: at most 500 nM and 94.2%.
For `CC(C)(C)C#Cc1cc(N(C(=O)[C@H]2CC[C@H](C)CC2)[C@H]2CC[C@@H](OP(C)(C)=O)CC2)c(C(=O)O)s1` [Compound 5, 5-(3,3-Dimethyl-but-1-ynyl)-3-[[cis-4-(dimethyl-phosphinoyloxy)-cyclohexyl]-(trans-4-methyl-cyclohexanecarbonyl)-amino]-thiophene-2-carboxylic acid], in that order: at most 500 nM and 100%.
Consider `CP(=O)(O)Cc1ccc(-c2cc(N(C(=O)[C@H]3CC[C@H](C)CC3)[C@H]3CC[C@H](O)CC3)c(C(=O)O)s2)cc1` [Compound 22], for which the inhibition at 2 µM turned out to be 12.3%.
`CCOP(=O)(CCNC1CCC(N(c2cc(C#CC(C)(C)C)sc2C(=O)O)C(=O)[C@H]2CC[C@H](C)CC2)CC1)OCC` (stereo partly shown) [Compound 24, 3-(1,4-N-(4-(2-(diethoxyphosphoryl)ethylamino)cyclohexyl)-4-methylcyclohexanecarboxamido)-5-(3,3-dimethylbut-1-ynyl)thiophene-2-carboxylic acid] came in with an EC50 of at most 500 nM.
On to `CC(C)(C)C#Cc1cc(N(C(=O)[C@H]2CC[C@H](C(F)(F)F)CC2)[C@H]2CC[C@H](OP(C)(C)=O)CC2)c(C(=O)O)s1` [Compound 6, 5-(3,3-Dimethyl-but-1-ynyl)-3-[[trans-4-(dimethyl-phosphinoyloxy)-cyclohexyl]-(trans-4-trifluoromethyl-cyclohexanecarbonyl)-amino]-thiophene-2-carboxylic acid], for which the inhibition at 2 µM is 93.2%.
Consider `CCP(=O)(CC)O[C@H]1CC[C@H](N(c2cc(C#CC(C)(C)C)sc2C(=O)O)C(=O)[C@H]2CC[C@H](C)CC2)CC1` [Compound 2, 3-[[trans-4-(Diethyl-phosphinoyloxy)-cyclohexyl]-(trans-4-methyl-cyclohexanecarbonyl)-amino]-5-(3,3-dimethyl-but-1-ynyl)-thiophene-2-carboxylic acid], for which the half-maximal effective concentration (EC50) is at most 500 nM and the inhibition at 2 µM was determined as 99.8%.
On to `CC(C)(C)C#Cc1cc(N(C(=O)[C@H]2CC[C@H](C)CC2)C2CCP(=O)(O)CC2)c(C(=O)O)s1` (stereo partly drawn) [Compound 12, 5-(3,3-Dimethyl-but-1-ynyl)-3[(1-hydroxy-1-oxo-1 λ^5phosphinan-4-yl)-(trans-4-methyl-cyclohexanecarbonyl)-amino]-thiophene-2-carboxylic acid], for which the inhibition at 2 µM amounted to 98.2%.
For `CCOP(C)(=O)C1(O)CCC(N(c2cc(C#CC(C)(C)C)sc2C(=O)O)C(=O)[C@H]2CC[C@H](C)CC2)CC1` (stereo partly drawn) [Compound 13, 5-(3,3-dimethylbut-1-ynyl)-3-((1r,4r)-N-(4-ethoxy(methyl)phosphoryl)-4-hydroxycyclohexyl)-(trans-4-methylcyclohexanecarboxamido)thiophene-2-carboxylic acid], the concentration for a half-maximal effect (EC50) was at most 500 nM and the inhibition at 2 µM was found to be 99.8%.
